Experimental data published in patent US20070060558A1 (PALUMED S.A., priority 2004, published 2007).
Values after ≈ are worked out from the molar mass of the structure shown. Where a name gives a salt, the structure may show the parent alone. Read-outs that look alike come from different tables or passages of the source.

Experiments:
B. fragilis API 7716 = assay: Antibacterial activity (MIC); type: cell-based; conditions: Bacteroides fragilis, API7716
[1] = test system: Staphylococcus aureus MSSA CIP 4.83; assay: Antibacterial activity (MIC/MBC); type: cell-based; conditions: Staphylococcus aureus
[2] = test system: S. aureus MRSA clinical isolate; assay: Antibacterial activity (MIC); type: cell-based, Staphylococcus aureus; conditions: Staphylococcus aureus; S. aureus MRSA clinical isolate; read-out: MIC
S. aureus MsrA PUL 5054 = assay: Antibacterial activity (MIC); type: cell-based; conditions: Staphylococcus aureus
[3] = test system: S. aureus VISA CIP 106757; assay: Antibacterial activity (MIC); type: cell-based; conditions: Staphylococcus aureus; S. aureus VISA CIP 106757; read-out: MIC
[4] = test system: S. epidermidis MSCNS (D10); assay: Antibacterial activity (MIC); type: cell-based; conditions: Staphylococcus epidermidis; S. epidermidis MSCNS (D10); read-out: MIC
[5] = test system: S. epidermidis MRCNS (E93); assay: Antibacterial activity (MIC); type: cell-based; conditions: Staphylococcus epidermidis; S. epidermidis MRCNS (E93); read-out: MIC
[6] = test system: S. pneumoniae PSSP CQI 201; assay: Antibacterial activity (MIC); type: cell-based, Streptococcus pneumoniae; conditions: for MIC: Streptococcus pneumoniae, S. pneumoniae PSSP CQI 201, read-out: MIC
[7] = test system: S. pneumoniae PRSP (CQR 162); assay: Antibacterial activity (MIC); type: cell-based; conditions: Streptococcus pneumoniae; S. pneumoniae PRSP (CQR 162); read-out: MIC
S. pyogenes CIP 56.41T = assay: Antibacterial activity (MIC/MBC); type: cell-based, Streptococcus pyogenes; conditions: Streptococcus pyogenes, CIP56; S. pyogenes CIP 56.41T; read-out: MIC
[8] = test system: E. faecium VRE VanA CIP107387; assay: Antibacterial activity (MIC); type: cell-based; conditions: Enterococcus faecium; E. faecium VRE VanA CIP107387; read-out: MIC
[9] = test system: E. faecalis VRE VanA CIP106996; assay: Antibacterial activity (MIC); type: cell-based; conditions: Enterococcus faecalis; E. faecalis VRE VanA CIP106996; read-out: MIC
[10] = test system: E. faecalis VRE VanB CIP106998; assay: Antibacterial activity (MIC); type: cell-based; conditions: Enterococcus faecalis; E. faecalis VRE VanB CIP106998; read-out: MIC
C. difficile CIP 104282 = assay: Antibacterial activity (MIC); type: cell-based, Clostridium difficile; conditions: Clostridioides difficile, CIP104282; C. difficile CIP 104282; read-out: MIC
[11] = test system: Staphylococcus aureus MSSA 53.154; assay: Murine experimental septicaemia, in vivo efficacy; set-up: species or system mice; conditions: sc, mice, subcutaneously at 1 and 6 h post infection, survival on day 9, hybrid molecules formulated in water as their bis(hydrochloride) salt, read-out: ED50
Description: Experimental septicaemia was induced in mice as follows. Briefly, male Swiss OF1 mice (IFFA CREDO-Charles River) weighing 18 to 20 grams were infected intraperitoneally with 0.5 mL of a bacterial suspension containing 8.5×10^7 cfu of Staphylococcus aureus MSSA 53.154 (Institut Pasteur). The hybrid molecules were administered subcutaneously at 1 and 6 h post infection. Control and treatment groups at each dose were composed of seven mice. All the infected but untreated control mice died within 9 days. The 50% effective dose (ED50) values were calculated by a computerized program (GraphPad) from the survival rates on day 9 after infection.

[12] = test system: Human lung fibroblast cells (ATCC CCL-171); assay: Cytotoxicity (MTT) assay; conditions: human, 18 hr
Description: Cellular toxicity was measured by a colorimetric assay that makes use of the tetrazolium salt, MTT. Human lung fibroblast cells (ATCC CCL-171) were plated in 96-well plates at 10^4 cells per well and incubated under 5% CO2 at 37° C. for 24 hr to allow adherence of cells to the plate. Test compounds were prepared as a stock solution at 1 mg/mL in 1% DMSO/water and diluted with water for the serial dilutions (500-7.8 μg/mL). Cells underwent a 18 hr treatment under 5% CO2 at 37° C. with experimental drugs. Corresponding controls received either no drug treatment or treatment with SDS (sodium dodecyl sulfate). The optical density of each sample was read on a microplate spectrophotometer reader at 600 nm and cell survival was expressed as a fraction of that of untreated controls. A drug is said cytotoxic when this fraction is ≦−30%

[13] = test system: S. pneumoniae PRSP clinical isolate; assay: Antibacterial activity (MIC/MBC); type: cell-based, Streptococcus pneumoniae; conditions: Streptococcus pneumoniae, PRSP, read-out: MIC
S. pneumoniae mefE = assay: Antibacterial activity (MIC); type: cell-based; conditions: Streptococcus pneumoniae; S. pneumoniae mefE (macrolide-resistant by efflux)
S. aureus NorA 1199B = assay: Antibacterial activity (MIC); type: cell-based, Staphylococcus aureus
S. pneumoniae PRSP = assay: Antibacterial activity (MIC), Table VII; type: cell-based; conditions: Streptococcus pneumoniae, PRSP
[14] = test system: E. faecalis VRE CIP 104676; assay: Antibacterial activity (MIC/MBC); type: cell-based, Enterococcus faecalis; conditions: Enterococcus faecalis
H. influenzae CIP 102514 = assay: Antibacterial activity (MIC/MBC); type: cell-based, Haemophilus influenzae; conditions: Haemophilus influenzae, CIP102514
E. coli CIP 54127 = assay: Antibacterial activity (MIC); type: cell-based; conditions: Escherichia coli, CIP54127
P. aeruginosa CIP 103467 = assay: Antibacterial activity (MIC); type: cell-based; conditions: Pseudomonas aeruginosa, CIP103467
B. subtilis CIP 5262 = assay: Antibacterial activity (MIC); type: cell-based; conditions: Bacillus subtilis, CIP5262
[15] = test system: B. thuringiensis CIP 104676; assay: Antibacterial activity (MIC); type: cell-based; conditions: Bacillus thuringiensis, CIP104676
[16] = S. aureus MSSA CIP 4.83, read-out: MIC

Row | Compound | MIC [1, 16] | MIC [2] | MIC (S. aureus MsrA PUL 5054) | MIC [3] | MIC [4] | MIC [5] | MIC [6] | MIC [7] | MIC (S. pyogenes CIP 56.41T) | MIC [8] | MIC [9] | MIC [10] | MIC (C. difficile CIP 104282) | ED50 [11] | % of survival cells compared to the untreated controls ([12]; 7.8 μg/mL) | % of survival cells compared to the untreated controls ([12]; 15.6 μg/mL) | % of survival cells compared to the untreated controls ([12]; 31.2 μg/mL) | % of survival cells compared to the untreated controls ([12]; 62.5 μg/mL) | % of survival cells compared to the untreated controls ([12]; 125 μg/mL) | % of survival cells compared to the untreated controls ([12]; 250 μg/mL) | further results
1 | Cc1ncc([N+](=O)[O-])n1CCNc1ccnc2cc(C(F)(F)F)ccc12 [PA 1130, [2-(2-Methyl-5-nitroimidazol-1-yl)-ethyl]-(7-trifluoromethylquinolinyl-4-yl)-amine] | – | – | – | – | – | – | – | – | – | – | – | – | – | – | – | – | – | – | – | – | MIC (B. fragilis API 7716): 3.12 µg/mL (≈ 8.54 µM)
2 | CN[C@H](CC(C)C)C(=O)N[C@H]1C(=O)N[C@@H](CC(N)=O)C(=O)N[C@H]2C(=O)N[C@H]3C(=O)N[C@H](C(=O)N[C@H](C(=O)O)c4cc(O)cc(O)c4-c4cc3ccc4O)[C@H](O)c3ccc(c(Cl)c3)Oc3cc2cc(c3OC2OC(CO)C(O)C(O)C2OC2CC(C)(NCc3ccc(OCCNc4ccnc5cc(Cl)ccc45)cc3)C(O)C(C)O2)Oc2ccc(cc2Cl)[C@H]1O (stereo partly drawn) [PA 1157, N-4-{4-[2-(7-Chloroquinolin-4-ylamino)ethoxy]-benzyl}-vancomycin] | 0.012 µg/mL (≈ 0.00682 µM) | 0.2 µg/mL (≈ 0.114 µM) | < 0.045 µg/mL | 0.1 µg/mL (≈ 0.0568 µM) | 0.05 µg/mL (≈ 0.0284 µM) | 0.003 µg/mL (≈ 0.0017 µM) | 3 ng/mL (≈ 0.0017 µM) | 0.003 µg/mL (≈ 0.0017 µM) | 0.125 µg/mL (≈ 0.071 µM) | 6.25 µg/mL (≈ 3.55 µM) | 3.12 µg/mL (≈ 1.78 µM) | 6.25 µg/mL (≈ 3.55 µM) | 0.078 µg/mL (≈ 0.0443 µM) | 0.09 mg/kg | −22.0% | −22.5% | −24.2% | −24.9% | −26.9% | −26.2% | % of survival cells compared to the untreated controls ([12]; 500 μg/mL): −29.2%
3 | CN[C@H](CC(C)C)C(=O)N[C@H]1C(=O)N[C@@H](CC(N)=O)C(=O)N[C@H]2C(=O)N[C@H]3C(=O)N[C@H](C(=O)N[C@H](C(=O)O)c4cc(O)cc(O)c4-c4cc3ccc4O)[C@H](O)c3ccc(c(Cl)c3)Oc3cc2cc(c3OC2OC(CO)C(O)C(O)C2OC2CC(C)(NCCCCNc3ccnc4cc(Cl)ccc34)C(O)C(C)O2)Oc2ccc(cc2Cl)[C@H]1O (stereo partly drawn) [PA 1158, N-4-[4(7-Chloroquinolin-4-ylamino)-butyl]-vancomycin] | 0.1 µg/mL (≈ 0.0595 µM) | 0.2 µg/mL (≈ 0.119 µM) | < 0.045 µg/mL | 0.39 µg/mL (≈ 0.232 µM) | 0.1 µg/mL (≈ 0.0595 µM) | 0.05 µg/mL (≈ 0.0297 µM) | 12 ng/mL (≈ 0.00713 µM) | 0.025 µg/mL (≈ 0.0149 µM) | 0.062 µg/mL (≈ 0.0369 µM) | 25 µg/mL (≈ 14.9 µM) | 6.25 µg/mL (≈ 3.72 µM) | 6.25 µg/mL (≈ 3.72 µM) | 0.078 µg/mL (≈ 0.0464 µM) | 0.26 mg/kg | −11.8% | −13.2% | −10.7% | −16.9% | −16.9% | −19.8% | % of survival cells compared to the untreated controls ([12]; 500 μg/mL): −18.4%
4 | CC[C@@H]1OC(=O)[C@H](C)[C@H](OC2CC(C)(OC)C(O)C(C)O2)[C@@H](C)[C@@H](OC2OC(C)CC(N(C)C)C2O)[C@](C)(O)C[C@@H](C)/C(=N\OCCCNc2ccnc3cc(Cl)ccc23)[C@@H](C)[C@H](O)[C@]1(C)O (stereo partly drawn) [PA 1169, 10{O-[3-(7-Chloroquinolin-4-ylamino)-propyl]-oxime}-erythromycin] | 0.156 µg/mL (≈ 0.161 µM) | 0.31 µg/mL (≈ 0.32 µM) | – | – | – | – | 5 ng/mL (≈ 0.00517 µM) | – | 0.078 µg/mL (≈ 0.0806 µM) | – | – | – | – | – | – | – | – | – | – | – | gain in activity (factor) ([6]; Streptococcus pneumoniae PSSP, versus macrolide residue): 8; MIC [13]: > 5 µg/mL; MIC (S. pneumoniae mefE): 1.25 µg/mL (≈ 1.29 µM)
5 | O=C(O)c1cn(C2CC2)c2cc(N3CCN(c4ccnc5cc(Cl)ccc45)CC3)c(F)cc2c1=O [hydrochloride] | – | – | – | – | – | – | – | – | – | – | – | – | – | – | – | – | – | – | – | – | MIC [1]: 0.156 µg/mL; fold more active than the sub-structure from which it comes (S. aureus NorA 1199B; S. aureus NorA, versus ciprofloxacin): 280; MIC (S. aureus NorA 1199B; Staphylococcus aureus, NORA1199B): 0.18 µg/mL; MIC (S. pneumoniae PRSP): 0.078 µg/mL; MIC [14]: 0.078 µg/mL; MIC (H. influenzae CIP 102514): 0.312 µg/mL; MIC (E. coli CIP 54127): 0.612 µg/mL; MIC (P. aeruginosa CIP 103467): 5 µg/mL; MIC (B. subtilis CIP 5262): < 1 ng/mL; MIC [15]: 0.156 µg/mL
